≈ marks a conversion by molar mass, not a printed value.
Key:
Poliovirus 3 = test: microbe, parasite or virus in culture; format: cell-based; conditions: Enterovirus C, read-out: Poliovirus3 EC50
in vitro = conditions: human

Compound | EC50 (Poliovirus 3) [mg/L] | CC50 (in vitro) [mg/L] | CC50 (in vitro; Picorana CC50) [mg/L] | CC50 (in vitro; Rhino CC50) [mg/L]
CC(C)c1ccc2c(c1)OC1(O)c3cccc(N)c3C(=O)C21NC(=O)c1ccc(C#N)cn1 (stereo not shown) [Example 245, N-(1-Amino-4b-hydroxy-7-isopropyl-10-oxo-9b,10-dihydro-4bH-benzo[d]indeno[1,2-b]furan-9b-yl)-5-cyanopicolinamide] | < 0.01 | > 10 | 8.47 (≈ 19.2 µM) | –
CC(C)c1ccc2c(c1)OC1(O)c3cccc(N)c3C(=O)C21NC(=O)c1ccncc1F (stereo not shown) [Example 250, N-(1-Amino-4b-hydroxy-7-isopropyl-10-oxo-9b,10-dihydro-4bH-indeno[1,2-b]benzofuran-9b-yl)-3-fluoroisonicotinamide] | < 0.01 | > 10 | – | –
CC(C)c1ccc2c(c1)OC1(O)c3cccc(N)c3C(=O)C21NC(=O)c1cnccn1 (stereo not shown) [Example 200, N-(1-Amino-4b-hydroxy-7-isopropyl-10-oxo-9b,10-dihydro-4bH-indeno[1,2-b]benzofuran-9b-yl) pyrazine-2-carboxamide] | < 0.01 | > 10 | – | –
Cc1cc2c(cc1C)C1(NC(=O)c3ccc4ncccc4c3)C(=O)c3c(N)cccc3C1(O)O2 (stereo not shown) [Example 262, N-(1-Amino-4b-hydroxy-7,8-dimethyl-10-oxo-9b,10-dihydro-4bH-indeno[1,2-b]benzofuran-9b-yl)quinoline-6-carboxamide] | 0.0124 (≈ 0.0275 µM) | > 10 | – | –
CC(C)c1ccc2c(c1)OC1(O)c3cccc(N)c3C(=O)C21NC(=O)c1nc2cc(F)ccc2[nH]1 (stereo not shown) [Example 291, N-(1-Amino-4b-hydroxy-7-isopropyl-10-oxo-9b,10-dihydro-4bH-indeno[1,2-b]benzofuran-9b-yl)-5-fluoro-1H-benzo[d]imidazole-2-carboxamide] | 0.036 (≈ 0.0762 µM) | 4.51 (≈ 9.55 µM) | 4.43 (≈ 9.38 µM) | –
CC(C)c1ccc2c(c1)OC1(O)c3cccc(N)c3C(=O)C21NC(=O)c1ccc(OCc2ccccc2)cc1 (stereo not shown) [Example 181, N-(1-Amino-4b-hydroxy-7-isopropyl-10-oxo-9b,10-dihydro-4bH-indeno[1,2-b]benzofuran-9b-yl)-4-(benzyloxy)benzamide] | 0.036 (≈ 0.0692 µM) | > 10 | – | –
Cc1cc(C)cc(C(=O)NC23C(=O)c4c(N)cccc4C2(O)Oc2cc(C(C)C)ccc23)c1 (stereo not shown) [Example 191, N-(1-Amino-4b-hydroxy-7-isopropyl-10-oxo-9b,10-dihydro-4bH-indeno[1,2-b]benzofuran-9b-yl)-3,5-dimethylbenzamide] | < 0.01 | > 10 | 4.12 (≈ 9.31 µM) | –
CC(C)c1ccc2c(c1)OC1(O)c3cccc(N)c3C(=O)C21NC(=O)c1ccc(C#N)cc1 (stereo not shown) [Example 170, N-(1-Amino-4b-hydroxy-7-isopropyl-10-oxo-9b,10-dihydro-4bH-indeno[1,2-b]benzofuran-9b-yl)-4-cyanobenzamide] | < 0.01 | > 10 | – | –
CCCC(=O)NC12C(=O)c3c(N)cccc3C1(O)Oc1cc(C(C)C)ccc12 (stereo not shown) [Example 144, N-(1-Amino-4b-hydroxy-7-isopropyl-10-oxo-9b,10-dihydro-4bH-indeno[1,2-b]benzofuran-9b-yl) butyramide] | < 0.01 | 21.7 (≈ 57.1 µM) | 35.5 (≈ 93.3 µM) | –
CCOC(=O)OC12Oc3cc(C(C)C)ccc3C1(NC(C)=O)C(=O)c1c(N)cccc12 (stereo not shown) [Example 123, 9b-Acetamido-1-amino-7-isopropyl-10-oxo-9b,10-dihydro-4bH-benzo[d]indeno[1,2-b]furan-4b-yl ethyl carbonate] | < 0.01 | 43.4 (≈ 102 µM) | 37.5 (≈ 88.4 µM) | –
CC(C)c1ccc2c(c1)OC1(O)c3cccc(N)c3C(=O)C21NC(=O)C1CC1 (stereo not shown) [Example 158, N-(1-Amino-4b-hydroxy-7-isopropyl-10-oxo-9b,10-dihydro-4bH-indeno[1,2-b]benzofuran-9b-yl)cyclopropanecarboxamide] | < 0.01 | 39.4 (≈ 104 µM) | 44.7 (≈ 118 µM) | –
CC(C)c1ccc2c(c1)OC1(O)c3cccc(N)c3C(=O)C21NC(=O)c1ccc(Cl)cc1 (stereo not shown) [Example 155, N-(1-Amino-4b-hydroxy-7-isopropyl-10-oxo-9b,10-dihydro-4bH-indeno[1,2-b]benzofuran-9b-yl)-4-chlorobenzamide] | < 0.01 | 7.81 (≈ 17.4 µM) | 9.02 (≈ 20.1 µM) | –
Cc1cccc(C(=O)NC23C(=O)c4c(N)cccc4C2(O)Oc2cc(C(C)C)ccc23)c1 (stereo not shown) [Example 187, N-(1-Amino-4b-hydroxy-7-isopropyl-10-oxo-9b,10-dihydro-4bH-benzo[d]indeno[1,2-b]furan-9b-yl)-3-methylbenzamide] | < 0.01 | > 10 | 7.43 (≈ 17.3 µM) | –
CC(C)c1ccc2c(c1)OC1(O)c3cccc(N)c3C(=O)C21NC(=O)C(C)(C)C (stereo not shown) [Example 114, N-(1-Amino-4b-hydroxy-7-isopropyl-10-oxo-9b,10-dihydro-4bH-benzo[d]indeno[1,2-b]furan-9b-yl)pivalamide] | 0.034 (≈ 0.0862 µM) | 43.1 (≈ 109 µM) | 45.9 (≈ 116 µM) | –
CC(C)c1ccc2c(c1)OC1(O)c3cccc(N)c3C(=O)C21NC(=O)c1cnnc2ccccc12 (stereo not shown) [Example 238, N-(1-Amino-4b-hydroxy-7-isopropyl-10-oxo-9b,10-dihydro-4bH-benzo[d]indeno[1,2-b]furan-9b-yl)cinnoline-4-carboxamide] | < 0.01 | > 10 | 8.33 (≈ 17.9 µM) | –
CC(C)c1ccc2c(c1)OC1(O)c3cccc(N)c3C(=O)C21NC(=O)c1ncccc1O (stereo not shown) [Example 257, N-(1-Amino-4b-hydroxy-7-isopropyl-10-oxo-9b,10-dihydro-4bH-indeno[1,2-b]benzofuran-9b-yl)-3-hydroxypicolinamide] | 0.031 (≈ 0.0719 µM) | > 10 | – | –
COc1cccc(C(=O)NC23C(=O)c4c(N)cccc4C2(O)Oc2cc(C(C)C)ccc23)c1 (stereo not shown) [Example 154, N-(1-Amino-4b-hydroxy-7-isopropyl-10-oxo-9b,10-dihydro-4bH-indeno[1,2-b]benzofuran-9b-yl)-3-methoxybenzamide] | < 0.01 | 22.7 (≈ 51.1 µM) | 46.2 (≈ 104 µM) | –
COc1sccc1C(=O)NC12C(=O)c3c(N)cccc3C1(O)Oc1cc(C(C)C)ccc12 (stereo not shown) [Example 217, N-(1-Amino-4b-hydroxy-7-isopropyl-10-oxo-9b,10-dihydro-4bH-indeno[1,2-b]benzofuran-9b-yl)-2-methoxythiophene-3-carboxamide] | 0.038 (≈ 0.0843 µM) | > 10 | 4.24 (≈ 9.41 µM) | –
CC(C)c1ccc2c(c1)OC1(O)c3cccc(N)c3C(=O)C21NC(=O)Cc1ccccc1 (stereo not shown) [Example 179, N-(1-Amino-4b-hydroxy-7-isopropyl-10-oxo-9b,10-dihydro-4bH-indeno[1,2-b]benzofuran-9b-yl)-2-phenylacetamide] | < 0.01 | > 10 | – | –
Cc1ccncc1C(=O)NC12C(=O)c3c(N)cccc3C1(O)Oc1cc(C(C)C)ccc12 (stereo not shown) [Example 258, N-(1-Amino-4b-hydroxy-7-isopropyl-10-oxo-9b,10-dihydro-4bH-indeno[1,2-b]benzofuran-9b-yl)-4-methylnicotinamide] | 0.04 (≈ 0.0931 µM) | > 10 | – | –
CC(C)c1ccc2c(c1)OC1(O)c3cccc(N)c3C(=O)C21NC(=O)c1ccc2ccccc2c1 (stereo not shown) [Example 171, N-(1-Amino-4b-hydroxy-7-isopropyl-10-oxo-9b,10-dihydro-4bH-indeno[1,2-b]benzofuran-9b-yl)-2-naphthamide] | 0.03 (≈ 0.0646 µM) | > 10 | – | –
Cc1cc(C(=O)NC23C(=O)c4c(N)cccc4C2(O)Oc2cc(C(C)C)ccc23)ccn1 (stereo not shown) [Example 249, N-(1-Amino-4b-hydroxy-7-isopropyl-10-oxo-9b,10-dihydro-4bH-indeno[1,2-b]benzofuran-9b-yl)-2-methylisonicotinamide] | < 0.01 | > 10 | – | –
CC(C)c1ccc2c(c1)OC1(O)c3cccc(N)c3C(=O)C21NC(=O)c1cc2ncccn2n1 (stereo not shown) [Example 273, N-(1-Amino-4b-hydroxy-7-isopropyl-10-oxo-9b,10-dihydro-4bH-indeno[1,2-b]benzofuran-9b-yl)pyrazolo[1,5-a]pyrimidine-2-carboxamide] | < 0.01 | > 10 | – | –
CCC(=O)NC12C(=O)c3c(N)cccc3C1(O)Oc1cc(C(C)C)ccc12 (stereo not shown) [Example 143, N-(1-Amino-4b-hydroxy-7-isopropyl-10-oxo-9b,10-dihydro-4bH-indeno[1,2-b]benzofuran-9b-yl)propionamide] | < 0.01 | 58.1 (≈ 158 µM) | > 50 | –
CC(C)c1ccc2c(c1)OC1(O)c3cccc(N)c3C(=O)C21NC(=O)c1ccc2nccn2c1 (stereo not shown) [Example 272, N-(1-Amino-4b-hydroxy-7-isopropyl-10-oxo-9b,10-dihydro-4bH-indeno[1,2-b]benzofuran-9b-yl)imidazo[1,2-a]pyridine-6-carboxamide] | < 0.01 | > 10 | – | –
CC(C)c1ccc2c(c1)OC1(O)c3cccc(N)c3C(=O)C21NC(=O)c1cnc2ccccc2c1 (stereo not shown) [Example 214, N-(1-Amino-4b-hydroxy-7-isopropyl-10-oxo-9b,10-dihydro-4bH-indeno[1,2-b]benzofuran-9b-yl)quinoline-3-carboxamide] | < 0.01 | > 10 | – | –
CC(C)c1ccc2c(c1)OC1(O)c3cccc(N)c3C(=O)C21NC(=O)c1ccc2ccccc2n1 (stereo not shown) [Example 263] | 0.039 (≈ 0.0838 µM) | 5.4 (≈ 11.6 µM) | 7.65 (≈ 16.4 µM) | –
CC(C)c1ccc2c(c1)OC1(O)c3cccc(N)c3C(=O)C21NC(=O)CF (stereo not shown) [Example 193, N-(1-Amino-4b-hydroxy-7-isopropyl-10-oxo-9b,10-dihydro-4bH-benzo[d]indeno[1,2-b]furan-9b-yl)-2-fluoroacetamide] | 0.011 (≈ 0.0297 µM) | – | > 10 | > 10
CC(C)c1ccc2c(c1)OC1(O)c3cccc(N)c3C(=O)C21NC(=O)c1ccco1 (stereo not shown) [Example 201, N-(1-Amino-4b-hydroxy-7-isopropyl-10-oxo-9b,10-dihydro-4bH-indeno[1,2-b]benzofuran-9b-yl)furane-2-carboxamide] | < 0.01 | > 10 | – | –
CCCCC(=O)NC12C(=O)c3c(N)cccc3C1(OC(=O)CCCC)Oc1cc(C(C)C)ccc12 (stereo not shown) [Example 96, 1-Amino-7-isopropyl-10-oxo-9b-pentanamido-9b,10-dihydro-4bH-benzo[d]indeno[1,2-b]furan-4b-yl pentanoate] | 0.016 (≈ 0.0334 µM) | 24 (≈ 50.1 µM) | > 50 | –

— US9890133B2 (priority 2011, dated 2018)
